Results from ChEMBL document CHEMBL6115000, “Discovery of a first-in-class PROTAC degrader of histone lysine demethylase KDM4” (Eur J Med Chem, 2025).

Experiments:
[1] = target: T1, von Hippel-Lindau disease tumor suppressor/Lysine-specific demethylase 4A (Homo sapiens, UniProt O75164+P40337); experiment: PROTAC activity at VHL/KDM4A in human KYSE-150 cells assessed as induction of KDM4A degradation at 0.1 uM incubated for 12 hrs by Western blot analysis relative to control; format: cell-based; conditions: KYSE-150 cell line
[2] = target: T1, von Hippel-Lindau disease tumor suppressor/Lysine-specific demethylase 4A; experiment: PROTAC activity at VHL/KDM4A in human KYSE-150 cells assessed as induction of KDM4A degradation at 1 uM incubated for 12 hrs by Western blot analysis relative to control; format: cell-based; conditions: KYSE-150 cell line

T1 sequence (O75164 2-1064 limits assumed): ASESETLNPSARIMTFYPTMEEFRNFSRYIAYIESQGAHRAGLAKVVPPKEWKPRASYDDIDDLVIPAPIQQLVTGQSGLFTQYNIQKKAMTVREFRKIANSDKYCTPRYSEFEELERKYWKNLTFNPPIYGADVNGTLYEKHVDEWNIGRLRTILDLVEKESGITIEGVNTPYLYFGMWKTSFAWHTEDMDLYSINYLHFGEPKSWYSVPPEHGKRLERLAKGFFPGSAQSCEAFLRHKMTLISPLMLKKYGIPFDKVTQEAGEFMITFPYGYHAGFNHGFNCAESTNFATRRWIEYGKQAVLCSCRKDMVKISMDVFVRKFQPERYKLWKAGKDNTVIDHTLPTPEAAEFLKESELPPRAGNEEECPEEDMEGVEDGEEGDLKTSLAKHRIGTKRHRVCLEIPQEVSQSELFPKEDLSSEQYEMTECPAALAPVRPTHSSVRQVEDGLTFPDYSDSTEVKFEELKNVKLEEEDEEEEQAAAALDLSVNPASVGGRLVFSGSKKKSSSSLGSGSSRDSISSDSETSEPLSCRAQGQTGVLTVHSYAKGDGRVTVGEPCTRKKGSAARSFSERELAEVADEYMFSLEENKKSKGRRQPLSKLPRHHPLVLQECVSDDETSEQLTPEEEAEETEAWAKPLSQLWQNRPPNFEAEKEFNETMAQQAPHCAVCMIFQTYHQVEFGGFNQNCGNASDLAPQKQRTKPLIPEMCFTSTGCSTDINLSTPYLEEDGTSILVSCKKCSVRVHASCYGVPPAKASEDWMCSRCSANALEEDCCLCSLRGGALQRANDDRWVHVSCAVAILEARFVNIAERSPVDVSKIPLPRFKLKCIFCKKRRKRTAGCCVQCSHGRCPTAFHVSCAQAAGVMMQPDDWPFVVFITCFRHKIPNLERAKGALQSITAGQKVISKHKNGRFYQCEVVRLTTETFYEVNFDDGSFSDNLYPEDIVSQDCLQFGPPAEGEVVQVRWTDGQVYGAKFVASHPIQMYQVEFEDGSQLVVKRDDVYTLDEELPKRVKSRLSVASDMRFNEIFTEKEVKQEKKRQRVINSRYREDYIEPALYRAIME
T1 sequence (P40337 whole entry partner): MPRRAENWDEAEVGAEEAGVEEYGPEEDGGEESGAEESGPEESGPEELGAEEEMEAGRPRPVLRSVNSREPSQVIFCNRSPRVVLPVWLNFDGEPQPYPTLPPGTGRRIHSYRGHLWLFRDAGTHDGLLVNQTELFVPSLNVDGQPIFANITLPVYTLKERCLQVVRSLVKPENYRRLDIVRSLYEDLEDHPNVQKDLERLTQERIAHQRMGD

| Compound | Activity [1] | Activity [2] |
| --- | --- | --- |
| Cc1ncsc1-c1ccc([C@H](C)NC(=O)[C@@H]2C[C@@H](O)CN2C(=O)[C@@H](NC(=O)CCOCCOCCOc2ccc(N(C)c3ccc4c(c3)OCC[C@H]4CNc3cnccc3C(=O)O)cc2)C(C)(C)C)cc1 | 6.5% | 15.5% |
| Cc1ncsc1-c1ccc([C@H](C)NC(=O)[C@@H]2C[C@@H](O)CN2C(=O)[C@@H](NC(=O)c2ccc(CCCCCOc3ccc(N(C)c4ccc5c(c4)OCC[C@H]5CNc4cnccc4C(=O)O)cc3)cc2)C(C)(C)C)cc1 | 42.7% | 63.1% |
| Cc1ncsc1-c1ccc([C@H](C)NC(=O)[C@@H]2C[C@@H](O)CN2C(=O)[C@@H](NC(=O)CCCCCCOc2ccc(N(C)c3ccc4c(c3)OCC[C@H]4CNc3cnccc3C(=O)O)cc2)C(C)(C)C)cc1 | 48.5% | 57.9% |
| Cc1ncsc1-c1ccc([C@H](C)NC(=O)[C@@H]2C[C@@H](O)CN2C(=O)[C@@H](NC(=O)CCCCCCCCCCCOc2ccc(N(C)c3ccc4c(c3)OCC[C@H]4CNc3cnccc3C(=O)O)cc2)C(C)(C)C)cc1 | 47.1% | 58.5% |
| Cc1ncsc1-c1ccc([C@H](C)NC(=O)[C@@H]2C[C@@H](O)CN2C(=O)[C@@H](NC(=O)CCCCCCCCOc2ccc(N(C)c3ccc4c(c3)OCC[C@H]4CNc3cnccc3C(=O)O)cc2)C(C)(C)C)cc1 | 34.6% | 53.9% |
| Cc1ncsc1-c1ccc([C@H](C)NC(=O)[C@@H]2C[C@@H](O)CN2C(=O)[C@@H](NC(=O)C2CCN(C(=O)CCCCCOc3ccc(N(C)c4ccc5c(c4)OCC[C@H]5CNc4cnccc4C(=O)O)cc3)CC2)C(C)(C)C)cc1 | 19.5% | 12% |
| Cc1ncsc1-c1ccc([C@H](C)NC(=O)[C@@H]2C[C@@H](O)CN2C(=O)[C@@H](NC(=O)CCCCCCCOc2ccc(N(C)c3ccc4c(c3)OCC[C@H]4CNc3cnccc3C(=O)O)cc2)C(C)(C)C)cc1 | 37.1% | 57.2% |
| Cc1ncsc1-c1ccc([C@H](C)NC(=O)[C@@H]2C[C@@H](O)CN2C(=O)[C@@H](NC(=O)c2ccc(CCCCOc3ccc(N(C)c4ccc5c(c4)OCC[C@H]5CNc4cnccc4C(=O)O)cc3)cc2)C(C)(C)C)cc1 | 30.5% | 43.9% |
| Cc1ncsc1-c1ccc([C@H](C)NC(=O)[C@@H]2C[C@@H](O)CN2C(=O)[C@@H](NC(=O)CCOCCOCCOCCOc2ccc(N(C)c3ccc4c(c3)OCC[C@H]4CNc3cnccc3C(=O)O)cc2)C(C)(C)C)cc1 | -2.5% | 15.5% |
| Cc1ncsc1-c1ccc([C@H](C)NC(=O)[C@@H]2C[C@@H](O)CN2C(=O)[C@@H](NC(=O)c2ccc(C#CCCCCOc3ccc(N(C)c4ccc5c(c4)OCC[C@H]5CNc4cnccc4C(=O)O)cc3)cc2)C(C)(C)C)cc1 | 38.7% | 47.3% |
| Cc1ncsc1-c1ccc([C@H](C)NC(=O)[C@@H]2C[C@@H](O)CN2C(=O)[C@@H](NC(=O)CCCCCCCCCCOc2ccc(N(C)c3ccc4c(c3)OCC[C@H]4CNc3cnccc3C(=O)O)cc2)C(C)(C)C)cc1 | 36.7% | 58.6% |
| Cc1ncsc1-c1ccc([C@H](C)NC(=O)[C@@H]2C[C@@H](O)CN2C(=O)[C@@H](NC(=O)c2ccc(CCCCCCOc3ccc(N(C)c4ccc5c(c4)OCC[C@H]5CNc4cnccc4C(=O)O)cc3)cc2)C(C)(C)C)cc1 | 52.4% | 54.5% |
| Cc1ncsc1-c1ccc([C@H](C)NC(=O)[C@@H]2C[C@@H](O)CN2C(=O)[C@@H](NC(=O)CCCCCCCOc2cccc(N(C)c3ccc4c(c3)OCC[C@H]4CNc3cnccc3C(=O)O)c2)C(C)(C)C)cc1 | -0.2% | 41.1% |
| Cc1ncsc1-c1ccc([C@H](C)NC(=O)[C@@H]2C[C@@H](O)CN2C(=O)[C@@H](NC(=O)CCCCCOc2ccc(N(C)c3ccc4c(c3)OCC[C@H]4CNc3cnccc3C(=O)O)cc2)C(C)(C)C)cc1 | 15.9% | 14.1% |
